In ChEMBL document CHEMBL3124838, “Discovery of 6-aryl-azabenzimidazoles that inhibit the TBK1/IKK-ε kinases” (Bioorg Med Chem Lett, 2014) one finds Activity and IC50 data, which are given here for three compounds.

pIC50: −log10 of the molar value.

The target of assay [1] is SRSF protein kinase 1 (Homo sapiens) (UniProt Q96SB4). Description: Inhibition of human SRPK1 assessed as residual activity at 1 uM relative to control.
Assay [2] concerns the target Serine/threonine-protein kinase PAK 2 (Homo sapiens) (UniProt Q13177). The assay is described as follows: Inhibition of human PAK2 assessed as residual activity at 1 uM relative to control.
Assay [3] has as its target Protein kinase C alpha type (Homo sapiens) (UniProt P17252). Description: Inhibition of human PKCalpha assessed as residual activity at 1 uM relative to control.
In assay [4] the target is Ribosomal protein S6 kinase beta-1 (Homo sapiens) (UniProt P23443). Description: Inhibition of human p70S6K assessed as residual activity at 1 uM relative to control.
Sequence of Ribosomal protein S6 kinase beta-1 (Homo sapiens) (P23443 whole entry, looked up): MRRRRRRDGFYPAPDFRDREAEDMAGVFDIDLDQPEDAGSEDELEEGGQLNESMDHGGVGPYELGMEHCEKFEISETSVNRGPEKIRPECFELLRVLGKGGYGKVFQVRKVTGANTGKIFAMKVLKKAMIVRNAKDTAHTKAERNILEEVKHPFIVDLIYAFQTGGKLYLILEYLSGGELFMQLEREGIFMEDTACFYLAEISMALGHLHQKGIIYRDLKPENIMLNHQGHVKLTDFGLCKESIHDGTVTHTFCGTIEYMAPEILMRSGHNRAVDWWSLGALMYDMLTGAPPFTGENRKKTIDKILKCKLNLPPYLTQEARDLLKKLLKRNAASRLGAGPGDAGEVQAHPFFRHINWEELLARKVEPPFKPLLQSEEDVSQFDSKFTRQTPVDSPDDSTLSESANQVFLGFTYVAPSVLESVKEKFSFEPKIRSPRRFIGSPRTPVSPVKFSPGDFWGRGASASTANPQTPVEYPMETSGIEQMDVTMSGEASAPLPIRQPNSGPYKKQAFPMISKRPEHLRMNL
Assay [5] has as its target Phosphatidylinositol 4-phosphate 5-kinase type-1 gamma (Homo sapiens) (UniProt O60331). The assay is described as follows: Inhibition of human PIP5K1gamma assessed as residual activity at 1 uM relative to control.
Assay [6] addresses T1, Serine/threonine-protein kinase Sgk1 (Homo sapiens) (UniProt O00141).
T1 sequence (whole entry): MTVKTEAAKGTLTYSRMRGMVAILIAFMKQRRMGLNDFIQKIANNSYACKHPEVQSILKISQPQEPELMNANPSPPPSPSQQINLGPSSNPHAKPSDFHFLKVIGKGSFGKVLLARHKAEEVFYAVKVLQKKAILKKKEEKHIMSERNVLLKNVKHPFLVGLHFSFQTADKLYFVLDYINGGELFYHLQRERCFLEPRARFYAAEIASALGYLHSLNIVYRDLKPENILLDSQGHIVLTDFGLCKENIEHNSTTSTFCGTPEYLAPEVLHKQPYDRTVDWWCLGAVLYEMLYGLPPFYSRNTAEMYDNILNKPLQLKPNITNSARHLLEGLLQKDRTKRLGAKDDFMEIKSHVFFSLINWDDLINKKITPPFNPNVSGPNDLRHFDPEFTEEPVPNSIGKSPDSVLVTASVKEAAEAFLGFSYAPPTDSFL
The assay is described as follows: Inhibition of human SGK assessed as residual activity at 1 uM relative to control.

Assay [7] deals with Ephrin type-A receptor 5 (Homo sapiens) (UniProt P54756). The assay is described as follows: Inhibition of human EPHA5 assessed as residual activity at 1 uM relative to control.
Sequence of Ephrin type-A receptor 5 (Homo sapiens) (P54756 whole entry): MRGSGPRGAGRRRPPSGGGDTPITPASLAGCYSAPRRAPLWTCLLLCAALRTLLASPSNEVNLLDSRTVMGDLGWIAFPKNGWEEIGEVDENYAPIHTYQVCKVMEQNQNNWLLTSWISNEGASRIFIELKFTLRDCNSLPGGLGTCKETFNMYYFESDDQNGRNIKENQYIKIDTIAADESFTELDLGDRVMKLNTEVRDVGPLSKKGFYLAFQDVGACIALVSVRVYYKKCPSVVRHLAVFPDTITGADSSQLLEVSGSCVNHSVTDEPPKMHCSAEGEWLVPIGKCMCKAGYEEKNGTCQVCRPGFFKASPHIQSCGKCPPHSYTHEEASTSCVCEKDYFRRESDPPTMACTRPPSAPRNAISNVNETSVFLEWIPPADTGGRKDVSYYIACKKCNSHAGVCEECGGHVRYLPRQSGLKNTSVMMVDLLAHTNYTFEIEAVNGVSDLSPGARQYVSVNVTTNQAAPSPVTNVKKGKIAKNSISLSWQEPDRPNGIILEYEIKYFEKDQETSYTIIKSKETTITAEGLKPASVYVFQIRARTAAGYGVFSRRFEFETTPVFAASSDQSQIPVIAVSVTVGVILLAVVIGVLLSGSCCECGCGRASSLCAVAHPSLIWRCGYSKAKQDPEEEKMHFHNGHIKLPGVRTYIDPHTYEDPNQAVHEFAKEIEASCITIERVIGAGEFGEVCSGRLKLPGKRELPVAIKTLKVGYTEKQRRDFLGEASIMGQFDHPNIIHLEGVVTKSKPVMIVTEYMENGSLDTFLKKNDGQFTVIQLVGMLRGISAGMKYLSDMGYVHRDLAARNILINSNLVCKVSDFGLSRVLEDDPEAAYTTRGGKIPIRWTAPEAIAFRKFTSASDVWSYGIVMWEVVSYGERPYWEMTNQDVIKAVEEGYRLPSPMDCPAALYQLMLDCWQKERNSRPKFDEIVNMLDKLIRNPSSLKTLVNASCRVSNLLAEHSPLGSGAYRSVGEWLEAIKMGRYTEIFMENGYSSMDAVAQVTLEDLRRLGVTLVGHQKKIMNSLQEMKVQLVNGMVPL
Assay [8] deals with T2, Aurora kinase C (Homo sapiens) (UniProt Q9UQB9).
T2 sequence (whole entry): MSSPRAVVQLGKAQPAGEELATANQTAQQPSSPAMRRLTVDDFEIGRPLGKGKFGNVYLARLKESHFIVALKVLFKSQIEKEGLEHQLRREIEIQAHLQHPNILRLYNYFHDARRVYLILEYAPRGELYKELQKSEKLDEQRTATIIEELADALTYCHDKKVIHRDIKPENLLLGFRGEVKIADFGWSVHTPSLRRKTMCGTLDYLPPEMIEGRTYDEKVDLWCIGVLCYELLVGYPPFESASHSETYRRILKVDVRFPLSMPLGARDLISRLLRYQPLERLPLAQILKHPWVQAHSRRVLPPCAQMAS
Description: Inhibition of human Aurora-C assessed as residual activity at 1 uM relative to control.

The target in assay [9] is Ribosomal protein S6 kinase alpha-1 (Homo sapiens) (UniProt Q15418). The assay is described as follows: Inhibition of human RSK1 assessed as residual activity at 1 uM relative to control.
Assay [10] has as its target Insulin receptor-related protein (Homo sapiens) (UniProt P14616). The assay is described as follows: Inhibition of human IRR assessed as residual activity at 1 uM relative to control.
Assay [11] has as its target Tyrosine-protein kinase Blk (Homo sapiens) (UniProt P51451). The assay is described as follows: Inhibition of human BLK assessed as residual activity at 1 uM relative to control.
For assay [12], the target named is Vascular endothelial growth factor receptor 2 (Homo sapiens) (UniProt P35968). Description: Inhibition of human KDR assessed as residual activity at 1 uM relative to control.
Sequence of Vascular endothelial growth factor receptor 2 (Homo sapiens) (P35968 whole entry): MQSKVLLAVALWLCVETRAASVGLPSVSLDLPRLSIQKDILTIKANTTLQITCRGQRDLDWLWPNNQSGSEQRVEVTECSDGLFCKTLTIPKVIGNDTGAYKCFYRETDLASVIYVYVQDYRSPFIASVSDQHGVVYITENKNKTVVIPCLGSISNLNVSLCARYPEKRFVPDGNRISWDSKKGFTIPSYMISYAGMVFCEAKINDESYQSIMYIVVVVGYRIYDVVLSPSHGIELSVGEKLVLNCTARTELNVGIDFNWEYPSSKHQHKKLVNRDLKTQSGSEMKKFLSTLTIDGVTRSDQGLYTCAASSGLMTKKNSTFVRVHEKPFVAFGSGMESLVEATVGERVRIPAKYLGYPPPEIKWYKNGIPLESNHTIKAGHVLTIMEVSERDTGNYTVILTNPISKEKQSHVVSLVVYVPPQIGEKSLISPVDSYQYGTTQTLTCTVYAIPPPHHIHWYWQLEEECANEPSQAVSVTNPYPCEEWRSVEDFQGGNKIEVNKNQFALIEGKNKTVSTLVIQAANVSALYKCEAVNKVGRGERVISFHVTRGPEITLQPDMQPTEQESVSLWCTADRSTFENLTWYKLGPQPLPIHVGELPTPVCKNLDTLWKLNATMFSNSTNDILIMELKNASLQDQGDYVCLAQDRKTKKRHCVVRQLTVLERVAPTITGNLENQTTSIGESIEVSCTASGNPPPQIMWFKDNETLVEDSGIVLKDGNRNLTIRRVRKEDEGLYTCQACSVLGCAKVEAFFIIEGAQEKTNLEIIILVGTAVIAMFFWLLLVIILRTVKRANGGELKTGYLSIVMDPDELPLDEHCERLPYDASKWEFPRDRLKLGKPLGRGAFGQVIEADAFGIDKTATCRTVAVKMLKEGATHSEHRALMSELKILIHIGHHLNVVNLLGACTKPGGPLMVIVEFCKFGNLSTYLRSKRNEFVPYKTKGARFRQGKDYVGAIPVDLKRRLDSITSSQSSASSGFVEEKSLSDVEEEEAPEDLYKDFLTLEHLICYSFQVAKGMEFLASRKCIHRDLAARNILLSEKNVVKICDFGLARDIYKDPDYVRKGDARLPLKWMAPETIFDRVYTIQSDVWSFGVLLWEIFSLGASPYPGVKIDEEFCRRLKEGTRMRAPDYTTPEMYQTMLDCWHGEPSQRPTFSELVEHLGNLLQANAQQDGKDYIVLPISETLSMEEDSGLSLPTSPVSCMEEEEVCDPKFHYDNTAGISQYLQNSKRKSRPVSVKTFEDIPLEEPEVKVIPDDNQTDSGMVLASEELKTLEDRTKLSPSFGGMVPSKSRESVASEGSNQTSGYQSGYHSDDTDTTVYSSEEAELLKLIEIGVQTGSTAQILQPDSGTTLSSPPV
In assay [13] the test system is Proto-oncogene tyrosine-protein kinase receptor Ret (Homo sapiens), P07949 [V804M]. The assay is described as follows: Inhibition of human RET V804M mutant assessed as residual activity at 1 uM relative to control.
Assay [14] has as its target Tyrosine-protein kinase Yes (Homo sapiens) (UniProt P07947). The assay is described as follows: Inhibition of human YES assessed as residual activity at 1 uM relative to control.
Assay [15] concerns Proto-oncogene tyrosine-protein kinase receptor Ret (Homo sapiens), P07949 [V804L]. Description: Inhibition of human RET V804L mutant assessed as residual activity at 1 uM relative to control.
The target in assay [16] is Proto-oncogene tyrosine-protein kinase receptor Ret (Homo sapiens) (UniProt P07949). The assay is described as follows: Inhibition of human RET assessed as residual activity at 1 uM relative to control.
In assay [17] the target is Aurora kinase B (Homo sapiens, UniProt Q96GD4). The assay is described as follows: Inhibition of aurora B (unknown origin).
For assay [18], the target named is Cyclin-dependent kinase 2 (Homo sapiens, UniProt P24941). Description: Inhibition of CDK2 (unknown origin).
Assay [19] addresses Fibroblast growth factor receptor 4 (Homo sapiens) (UniProt P22455). The assay is described as follows: Inhibition of human FGFR4 assessed as residual activity at 1 uM relative to control.
Assay [20] addresses Rho-associated protein kinase 2 (Homo sapiens) (UniProt O75116). The assay is described as follows: Inhibition of human ROCK-2 assessed as residual activity at 1 uM relative to control.
In assay [21] the target is RAC-alpha serine/threonine-protein kinase (Homo sapiens) (UniProt P31749). Description: Inhibition of human PKBalpha assessed as residual activity at 1 uM relative to control.
For assay [22], the target named is Tyrosine-protein kinase JAK2 (Homo sapiens) (UniProt O60674). The assay is described as follows: Inhibition of human JAK2 assessed as residual activity at 1 uM relative to control.
Sequence of Tyrosine-protein kinase JAK2 (Homo sapiens) (O60674 whole entry): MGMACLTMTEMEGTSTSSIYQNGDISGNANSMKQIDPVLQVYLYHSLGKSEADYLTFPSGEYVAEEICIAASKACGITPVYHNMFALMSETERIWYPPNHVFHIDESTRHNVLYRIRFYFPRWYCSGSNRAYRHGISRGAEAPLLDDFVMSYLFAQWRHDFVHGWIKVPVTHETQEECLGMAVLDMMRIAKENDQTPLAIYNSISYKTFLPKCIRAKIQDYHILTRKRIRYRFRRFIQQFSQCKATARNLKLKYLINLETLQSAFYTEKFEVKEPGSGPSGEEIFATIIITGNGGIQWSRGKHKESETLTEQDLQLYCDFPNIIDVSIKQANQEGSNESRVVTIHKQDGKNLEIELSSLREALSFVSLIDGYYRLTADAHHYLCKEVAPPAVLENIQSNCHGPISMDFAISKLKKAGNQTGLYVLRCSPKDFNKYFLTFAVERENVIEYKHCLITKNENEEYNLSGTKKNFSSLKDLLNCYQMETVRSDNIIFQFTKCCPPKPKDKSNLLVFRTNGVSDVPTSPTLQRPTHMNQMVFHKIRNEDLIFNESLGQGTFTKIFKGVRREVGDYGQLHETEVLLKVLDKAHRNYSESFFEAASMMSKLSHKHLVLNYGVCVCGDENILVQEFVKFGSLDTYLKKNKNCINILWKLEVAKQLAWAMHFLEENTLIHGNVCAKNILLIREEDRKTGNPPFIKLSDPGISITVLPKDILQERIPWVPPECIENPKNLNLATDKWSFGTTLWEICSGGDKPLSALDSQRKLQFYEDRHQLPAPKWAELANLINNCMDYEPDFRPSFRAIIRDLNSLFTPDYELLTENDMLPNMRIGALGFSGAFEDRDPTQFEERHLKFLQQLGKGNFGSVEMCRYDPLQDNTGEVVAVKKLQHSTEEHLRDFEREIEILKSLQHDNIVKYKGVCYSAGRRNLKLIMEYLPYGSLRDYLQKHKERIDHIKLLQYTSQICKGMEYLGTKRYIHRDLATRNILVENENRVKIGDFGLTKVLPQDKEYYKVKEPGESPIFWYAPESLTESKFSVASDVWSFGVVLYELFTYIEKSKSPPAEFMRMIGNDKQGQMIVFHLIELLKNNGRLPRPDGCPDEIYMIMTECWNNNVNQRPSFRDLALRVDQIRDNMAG
Assay [23] deals with Ribosomal protein S6 kinase alpha-5 (Homo sapiens) (UniProt O75582). The assay is described as follows: Inhibition of human MSK1 assessed as residual activity at 1 uM relative to control.
Assay [24] concerns Fibroblast growth factor receptor 1 (Homo sapiens), P11362 [V561M]. Description: Inhibition of human FGFR1 V561M mutant assessed as residual activity at 1 uM relative to control.

Sequence of Tyrosine-protein kinase Yes (Homo sapiens) (P07947 2-543 limits assumed): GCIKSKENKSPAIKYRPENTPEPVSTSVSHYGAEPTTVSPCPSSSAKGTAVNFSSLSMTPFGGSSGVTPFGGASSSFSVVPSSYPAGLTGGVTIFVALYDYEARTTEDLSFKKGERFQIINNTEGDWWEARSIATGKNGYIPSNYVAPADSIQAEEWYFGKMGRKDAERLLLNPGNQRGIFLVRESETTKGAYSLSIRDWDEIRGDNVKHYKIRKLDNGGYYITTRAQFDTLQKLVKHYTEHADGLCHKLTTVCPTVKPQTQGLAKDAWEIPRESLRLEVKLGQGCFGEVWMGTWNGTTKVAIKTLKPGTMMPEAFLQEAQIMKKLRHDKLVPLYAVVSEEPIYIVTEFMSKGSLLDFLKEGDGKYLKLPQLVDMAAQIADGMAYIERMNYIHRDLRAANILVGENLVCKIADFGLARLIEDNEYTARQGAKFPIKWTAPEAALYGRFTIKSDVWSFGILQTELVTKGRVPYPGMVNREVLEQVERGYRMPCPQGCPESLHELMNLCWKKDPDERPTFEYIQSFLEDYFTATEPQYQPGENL
Sequence of Tyrosine-protein kinase Blk (Homo sapiens) (P51451 2-505 limits assumed): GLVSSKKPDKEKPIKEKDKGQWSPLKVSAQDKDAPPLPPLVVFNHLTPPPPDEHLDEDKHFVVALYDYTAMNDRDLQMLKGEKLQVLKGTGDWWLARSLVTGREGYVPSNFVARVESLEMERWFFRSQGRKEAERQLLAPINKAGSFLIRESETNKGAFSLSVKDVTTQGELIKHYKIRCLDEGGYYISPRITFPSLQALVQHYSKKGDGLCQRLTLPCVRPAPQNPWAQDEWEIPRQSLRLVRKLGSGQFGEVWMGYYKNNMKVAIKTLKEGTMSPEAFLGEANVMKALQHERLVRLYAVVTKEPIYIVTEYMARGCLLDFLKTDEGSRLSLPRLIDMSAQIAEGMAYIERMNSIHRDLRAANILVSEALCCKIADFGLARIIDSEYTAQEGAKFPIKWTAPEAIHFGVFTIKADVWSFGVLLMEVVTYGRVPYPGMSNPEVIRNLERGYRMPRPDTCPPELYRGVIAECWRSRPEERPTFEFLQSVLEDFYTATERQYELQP

On to `COc1ccc(-c2nc3cc(-c4csc(C(=O)NCC(C)(C)C)c4)cnc3[nH]2)cc1`, for which the Activity in assay [1] turned out to be 94%; in assay [2], 92%; in assay [3], 91%; in assay [4] it was 87%; in assay [5] it was 86%; in [6], 82%. Moreover, the Activity was determined as 77% in assay [7]; 76% in assay [8]; 73% in [9]; 70% in [10]; 48% in assay [11]; 31% in assay [12]. Besides, the Activity in assay [13] worked out at 24%; in assay [14], 15%; in [15], 13%; in assay [16], 10%; in assay [19] it was 109%; in assay [20] it was 108%. The Activity in assay [21] was 107%; in [22], 105%; in assay [23], 104%; in assay [24] it was 104%. For the same compound, the results for the pIC50 in [17] and in [18] were 5.84 and below 4.52, respectively.
`COc1ccc(-c2nc3cc(-c4csc(C(=O)NCCC(C)C)c4)cnc3[nH]2)cc1`: the Activity in assay [1] was 96%; in assay [2], 94%; in assay [3], 89%; in assay [4], 80%; in assay [5] it was 93%; in assay [6], 78%. Further, the Activity in [7] is 76%; in assay [8] it was 77%; in assay [9] it was 76%; in assay [10], 80%; in [11], 13%; in [12], 23%. Also, the Activity was determined as 9% in assay [13]; 5% in [14]; 5% in assay [15]; 7% in assay [16]; 102% in assay [19]; 102% in assay [20]. Further, the Activity in assay [21] came to 111%; in assay [22], 100%; in assay [23] it was 104%; in [24], 90%. The results for the pIC50 in assay [17] and in [18] were 4.73 and below 4.52, respectively.
On to `COc1ccc(-c2nc3cc(-c4csc(C(=O)NCC(C)C)c4)cnc3[nH]2)cc1`, for which the Activity in assay [1] came to 91%; in assay [2], 90%; in assay [3] it was 101%; in assay [4], 84%; in assay [5], 88%; in assay [6], 102%. The Activity stood at 72% in assay [7]; 76% in assay [8]; 63% in assay [9]; 92% in [10]; 25% in [11]; 14% in assay [12]. For the same compound, the Activity was 15% in [13]; 6% in [14]; 8% in assay [15]; 6% in assay [16]; 109% in assay [19]; 108% in assay [20]. Further, the Activity in [21] is 119%; in assay [22], 108%; in [23], 100%; in [24], 85%. Moreover, the pIC50 in [17] is 5.23; in [18], below 4.52.

Usually pIC50 stands for the negative decadic logarithm of the IC50, by convention in mol/L.
